Columns and labels:
[1] = system: collagen-induced arthritis; test: Collagen-Induced Arthritis (CIA) Model; type: in vivo, female Lewis rats; settings: ten consecutive subcutaneous doses days 10-19; 500 nmol/kg induction, 100 nmol/kg maintenance
Method: Collagen-Induced Arthritis (CIA) Model. The collagen-induced arthritis (CIA) was induced in female Lewis rats on folate-deficient diet (Harlan Teklad, Indianapolis, Ind.). On Day 0, rats were immunized with 500 μg of bovine collagen Type II (Chondrex, Redmond, Wash.) formulated with Freund's complete adjuvant. A booster immunization was given on Day 7 with 250 μg of the bovine collagen formulated with Freund's incomplete adjuvant. Arthritis disease was assessed by a qualitative clinical score system described by the manufacturer (Chondrex, Redmond, Wash.): 0=normal, 1=Mild, but definite redness and swelling of the ankle or wrist, or apparent redness and swelling limited to individual digits, regardless of the number of affected digits, 2=Moderate redness and swelling of ankle of wrist, 3=Severe redness and swelling of the entire paw including digits, and 4=Maximally inflamed limb with involvement of multiple joints. On Day 10 post first immunization, rats were distributed evenly (according to the arthritis score) across the control and treatment groups. The CIA rats were given ten consecutive subcutaneous doses of EC0746 and methotrexate on days 10-19. For both drugs, an induction dose (500 nmol/kg) was given on days 10 and 15 and a maintenance dose (100 nmol/kg) was given on days 11-14 and 16-19. […] The arthritis score and animal body weight were recorded five times a week.

[2] = Plasma stability / drug release after dosing in rats; type: in vivo; settings: after a AC dose in rats
From the text: EC1496 releases ca. 50% less drug than the comparative example EC0746 after a AC dose in rats.

KB tumors = test: KB tumor assay in nu/nu mice; settings: for CR (%) / Cures (%) / PR (%) / Toxicity Avg. Weight Loss / Toxicity Deaths (%): TIW, 2 weeks
Method: Inhibition of Tumor Growth in Mice. Four to seven week-old mice (Balb/c or nu/nu strains) were purchased from Harlan Sprague Dawley, Inc. (Indianapolis, Ind.). Normal rodent chow contains a high concentration of folic acid (6 mg/kg chow); accordingly, mice used were maintained on the folate-free diet (Harlan diet #TD00434) for 1 week before tumor implantation to achieve serum folate concentrations close to the range of normal human serum. For tumor cell inoculation, 1×10^6 M109 cells (Balb/c strain) or 1×10^6 KB cells (nu/nu strain) in 100 μL were injected in the subcutis of the dorsal medial area. Tumors were measured in two perpendicular directions every 2-3 days using a caliper, and their volumes were calculated as 0.5×L×W^2, where L=measurement of longest axis in mm and W=measurement of axis perpendicular to L in mm. […] Dosing solutions were prepared fresh each day in PBS and administered through the lateral tail vein of the mice.
General KB Tumor Assay. The anti-tumor activity of the compounds described herein, when administered intravenously (i.v.) to tumor-bearing animals, was evaluated in nu/nu mice bearing subcutaneous KB tumors. Approximately 8 days post tumor inoculation in the subcutis of the right axilla with 1×10^6 KB cells (average tumor volume at to=50-100 mm^3), in mice (5/group) were injected i.v. three times a week (TIW), for 3 weeks with […] of the drug delivery conjugate or with an equivalent dose volume of PBS (control), unless otherwise indicated. Tumor growth was measured using calipers at 2-day or 3-day intervals in each treatment group. Tumor volumes were calculated using the equation V=a×b^2/2, where “a” is the length of the tumor and “b” is the width expressed in millimeters.
Toxicity as Measured by Weight Loss. The percentage weight change of the mice was determined in mice (5 mice/group) on selected days post-tumor inoculation (PTI), and graphed.
In vivo activity against tumors.

cells in culture = test: Cytotoxicity to cells in culture; type: cell-based; settings: read-out: typical IC50, cells in culture

For CCCC(=O)OCN(C(=O)[C@@H](NC(=O)[C@H]1CCCCN1C)C(C)CC)[C@H](C[C@H](OC(C)=O)c1nc(C(=O)N[C@H](Cc2ccc(O)cc2)C[C@H](C)C(=O)NNC(=O)OCCSSC[C@H](NC(=O)[C@H](CCC(=O)NC[C@H](O)[C@@H](O)[C@H](O)[C@H](O)CO)NC(=O)[C@H](CCC(=O)O)NC(=O)[C@H](CCC(=O)NC[C@H](O)[C@@H](O)[C@H](O)[C@H](O)CO)NC(=O)[C@H](CCC(=O)O)NC(=O)[C@H](CCC(=O)NC[C@H](O)[C@@H](O)[C@H](O)[C@H](O)CO)NC(=O)CC[C@H](NC(=O)c2ccc(NCc3cnc4nc(N)[nH]c(=O)c4n3)cc2)C(=O)O)C(=O)O)cs1)C(C)C (stereo partly shown) [EC0746], the “effect on collagen-induced arthritis (arthritis score)” value [1] was “effective”.

In the case of N=c1[nH]c(N)nc2ncc(CNc3ccc(C(=O)N[C@@H](CCC(=O)NNC(=O)OCCSSC[C@@H](NC(=O)[C@H](CCC(=O)NC[C@H](O)[C@@H](O)[C@H](O)[C@H](O)CO)NC(=O)[C@@H](CCC(=O)O)NC(=O)[C@H](CCC(=O)NC[C@H](O)[C@@H](O)[C@H](O)[C@H](O)CO)NC(=O)[C@@H](CCC(=O)O)NC(=O)[C@H](CCC(=O)NC[C@H](O)[C@@H](O)[C@H](O)[C@H](O)CO)NC(=O)CC[C@@H](NC(=O)c4ccc(NCc5cnc6nc(N)[nH]c(=O)c6n5)cc4)C(=O)O)C(=O)O)C(=O)O)cc3)nc12 [EC1496], the “less drug released than comparative example EC0746” value [2] is reported as “ca. 50%”.

With CCCC(=O)OCN(C(=O)[C@@H](NC(=O)[C@H]1CCCCN1C)[C@@H](C)CC)[C@H](C[C@@H](OC(C)=O)c1nc(C(=O)N[C@@H](Cc2ccc(O)cc2)C[C@H](C)C(=O)O)cs1)C(C)C [Tubulysin B, tubulysin B] the “CR (%)” value (KB tumors; 0.1 μmol/kg (4 doses)) was 0%, the “Cures (%)” value (KB tumors; 0.1 μmol/kg (4 doses)) was 0% and the “PR (%)” value (KB tumors; 0.1 μmol/kg (4 doses)) was 0%. For the same compound, the “Toxicity Avg. Weight Loss” value (KB tumors; 0.1 μmol/kg (4 doses)) was over 20%, the “Toxicity Deaths (%)” value (KB tumors; 0.1 μmol/kg (4 doses)) was 100% and the “CR (%)” value (KB tumors; 0.2 μmol/kg (3 doses)) was 0%. For the same compound, the “Cures (%)” value (KB tumors; 0.2 μmol/kg (3 doses)) was 0%, the “PR (%)” value (KB tumors; 0.2 μmol/kg (3 doses)) was 0% and the “Toxicity Avg. Weight Loss” value (KB tumors; 0.2 μmol/kg (3 doses)) was over 18%. The “Toxicity Deaths (%)” value (KB tumors; 0.2 μmol/kg (3 doses)) was 100%, the “CR (%)” value (KB tumors; 0.5 μmol/kg (1 dose)) was 0% and the “Cures (%)” value (KB tumors; 0.5 μmol/kg (1 dose)) was 0%. For the same compound, the “PR (%)” value (KB tumors; 0.5 μmol/kg (1 dose)) was 0%, the “Toxicity Avg. Weight Loss” value (KB tumors; 0.5 μmol/kg (1 dose)) was over 15% and the “Toxicity Deaths (%)” value (KB tumors; 0.5 μmol/kg (1 dose)) was 100%. The “toxicity in relation to anti-tumor effect in mice” value (KB tumors; mouse, in vivo) was “dose-limiting toxicities in mice at levels that did not produce measurable anti-tumor effect” and the IC50 (cells in culture) was about 1 nM.
